According to US12298319B2, “Method for measuring alpha value of muscarinic M1 receptor positive allosteric modulators” (Takeda Pharmaceutical Company Limited, priority 2017, dated 2025):

Tests used:
[1] = test system: Arc mRNA expression in mouse hippocampus; assay: Arc mRNA expression in hippocampus (RT-PCR, PD marker); format: in vivo; details: 90 min after treatment
Protocol: For in vivo pharmacodynamics (PD) marker analysis, mice were sacrificed by decapitation at 90 min after administration of Compound A or Compound B. Hippocampal tissues were isolated from the brain. These tissues were stored at -80° C. until RNA extraction. Total RNA from individual tissues was extracted using QIAzol Lysis Reagent and the RNeasy kit (Quiagen, Hilden, Germany) following the manufacturer's instruction. RT-PCR was carried out using ABI PRISM 7900HT sequence detection system (Life Technologies, Bedford, MA) and TagMan reagents (Eurogentec, Seraing, Belgium). RNA quantities were normalized using glyceraldehyde-3-phosphate dehydrogenase (GAPDH) mRNA transcripts according to manufacturer's instruction. The following primers were used for mouse Arc analysis: forward primer, [NT] ID NO:3); reverse primer, [NT] ID NO:4), TagMan probe, [NT] ID NO:5). The primers used for mouse Gapdh analysis were TagMan Rodent GAPDH Control Reagent, VIC probe, purchased from ABI (Applied biosystems-Life Technologies, Waltham, MA).

isolated mouse ileum = assay: In vitro Magnus method, spontaneous ileum motility; details: cumulative concentrations
Protocol: After overnight fasting, mice were sacrificed. The ileum was quickly dissected out and suspended in ice-cold Krebs solution with the following composition (in mM): NaCl, 120.7; KCl, 5.9; CaCl2, 2.5; MgCl2, 1.2; NaHCO3, 15.5; NaH2PO4, 1.2; and glucose, 11.5. Longitudinal segments of ileum (10-15 mm long) were detached of mesentery and adipose tissue, and mounted in organ baths containing 10 mL of Krebs solution aerated with 95% O2/5% CO2. Bath temperature was maintained at 37° C. The isolated ileum was given a passive load of 0.5 g. The contractile response of the isolated ileum was continuously recorded with isometric transducer (MLT050/A, ADInstruments, New South Wales, Australia) and recorder (PowerLab 8/30 ML870 and Octal Bridge Amp ML228, ADInstruments). […]
The contraction was measured as the maximum strength from the baseline. The effects of experimental substances on the maximum contraction were measured. […] The effect of each concentration of the compounds on ileum spontaneous contraction induced was calculated from the average value of 6 responses of the maximum strength. Then the ileum contractile response was expressed as a ratio of the mean maximum contraction to that obtained with the pre-treated DMSO (solvent). […] Due to very small size of relaxations, the effects of the compounds on them was not be analyzed.

[2] = test system: layer 5 pyramidal neurons; assay: Electrophysiology, current clamp of layer 5 pyramidal neurons in mPFC slices; format: cell-based, mouse; details: bath application, Compound D at 10 μM; for after hyperpolarization (AHP) / resting membrane potential (RMP): carbachol 10 M [sic] for 10 min; for after depolarization (ADP): carbachol for 10 min as printed
Protocol: Experiments were performed on coronal brain slices of the medial prefrontal cortex (mPFC) from 4-week-old male C57BL/6 mice. The animals were quickly sacrificed and the brain was placed in an ice-cold NMDG artificial cerebrospinal fluid (ACSF) (in mM): NMDG, 92; KCl, 2.5; CaCl2, 0.5; NaH2PO4, 1.25; MgSO4, 6; NaHCO3, 30; glucose, 25; HEPES, 20; thiourea, 2; Na-ascorbate, 5; and Na-pyruvate, 3) (Ting J. T. et al., Methods Mol Biol. 2014; 1183:221-42). Slices were cut at a thickness of 300 μm with a vibroslicer. Slices were initially transferred to a holding chamber containing NMDG aCSF for 15 minutes at 34° C. Slices were then transferred to a room temperature holding chamber for at least 1 h containing HEPES aCSF (in mM): NMDG, 92; KCl, 2.5; CaCl2, 2; NaH2PO4, 1.25; MgSO4, 2; NaHCO3, 30; glucose, 25; HEPES, 20; thiourea, 2; Na-ascorbate, 5; and Na-pyruvate, 3). Subsequently, the slices were transferred to the recording chamber, in which they were submerged and perfused with aCSF containing the following (in mM): NaCl, 124; KCl, 5; NaH2PO4, 1.2; MgCl2, 1.5; CaCl2, 2.5; glucose, 10; and NaHCO3, 24), at a flow rate of 1-2 ml/min. All buffers were continuously bubbled and saturated with carbogen (95% O2/5% CO2). Current clamp recordings were carried out at 32-33° C. from visually identified pyramidal neurons from layer 5 using a borosilicate pipette (5-7 MΩ) filled with intracellular solution (in mM): K-gluconate, 135; KCl, 4; HEPES, 10; EGTA, 0.2; MgATP, 4; Na2GTP, 0.3; pH 7.3 with KOH). Signals were acquired using a Multiclamp 700B amplifier and a Digidata 1440A interface board (Molecular Devices Japan, Tokyo, Japan), filtered between 2 kHz, sampled at 10 kHz, and analyzed with pClamp10 software.
M1Rs are known to contribute to the three cholinergic effects in layer 5 pyramidal neurons: the resting membrane potential (RMP) and physiological responses such as the after hyperpolarization (AHP) the after depolarization (ADP) that typically follow brief periods of action potential generation (Gulledge et al., J. Neurosci. 2009 Aug. 5; 29(31): 9888-9902). To investigate effects of M1 PAMs with different n value on brain function, cholinergic excitation by Compound D and Compound C were assessed. First, the muscarinic receptor agonist carbachol ([…] for 10 min) was tested by bath application (FIG. 13-A, FIG. 13-B, FIG. 13-C).

Cn1ccc(-c2ccc(CN3Cc4cccc(O[C@H]5CCCC[C@@H]5O)c4C3=O)cc2)n1 [Compound A, 7-(((1S,2S)-2-hydroxycyclohexyl)oxy)-2-(4-(1-methyl-1H-pyrazol-3-yl)benzyl)isoindolin-1-one]
Arc mRNA expression level in mouse hippocampus ([1]; 30 mg/kg p.o.): significant increase
Arc mRNA expression level in mouse hippocampus ([1]; 3-30 mg/kg p.o.): enhanced the expression level of Arc mRNA in a dose-dependent manner

Cn1cc(-c2ccc(CN3Cc4cccc(Oc5c(F)cccc5C#N)c4C3=O)cc2)cn1 [Compound B, 3-fluoro-2-((2-(4-(1-methyl-1H-pyrazol-4-yl)benzyl)-3-oxo-2,3-dihydro-1H-isoindol-4-yl)oxy)benzonitrile]
increase in Arc mRNA expression level in mouse hippocampus ([1]; 10-100 mg/kg p.o.): about 2 fold

Cn1cc(-c2ccc(Cc3cc4c(=O)n([C@H]5CCCC[C@@H]5O)cnc4c4ccccc34)cn2)cn1 [Compound C, 3-((1S,2S)-2-hydroxycyclohexyl)-6-((6-(1-methyl-1H-pyrazol-4-yl)pyridin-3-yl)methyl)benzo[h]quinazoline-4(3H)-one, reference compound]
spontaneous ileum motility (isolated mouse ileum): strengthened the spontaneous ileum motility in a concentration-dependent manner
after hyperpolarization (AHP) [2]: suppressed the AHP
resting membrane potential (RMP) [2]: generated subthreshold changes in the RMP
after depolarization (ADP) [2]: generated an ADP

Cc1c(Cc2ccc(-n3cccn3)cc2)cc2c(c1F)CN([C@H]1COCC[C@@H]1O)C2=O [Compound D, 4-fluoro-2-[(3S,4S)-4-hydroxytetrahydro-2H-pyran-3-yl]-5-methyl-6-[4-(1H-pyrazol-1-yl)benzyl]-2,3-dihydro-1H-isoindol-1-one]
spontaneous ileum motility (isolated mouse ileum): lower impact on ileum motility
after hyperpolarization (AHP) [2]: not depolarization of RMP and suppression of AHP
resting membrane potential (RMP) [2]: not depolarization of RMP
after depolarization (ADP) [2]: produced significant ADP generation
